Target: T1, h-GABAA α5β2γ1 (Homo sapiens, UniProt P31644+Q8N1C3)
T1 construct: expressed in transfected cells; host or cells: HEK293F cells (ThermoFisher R79007), membranes
T1 sequence (P31644 32-462): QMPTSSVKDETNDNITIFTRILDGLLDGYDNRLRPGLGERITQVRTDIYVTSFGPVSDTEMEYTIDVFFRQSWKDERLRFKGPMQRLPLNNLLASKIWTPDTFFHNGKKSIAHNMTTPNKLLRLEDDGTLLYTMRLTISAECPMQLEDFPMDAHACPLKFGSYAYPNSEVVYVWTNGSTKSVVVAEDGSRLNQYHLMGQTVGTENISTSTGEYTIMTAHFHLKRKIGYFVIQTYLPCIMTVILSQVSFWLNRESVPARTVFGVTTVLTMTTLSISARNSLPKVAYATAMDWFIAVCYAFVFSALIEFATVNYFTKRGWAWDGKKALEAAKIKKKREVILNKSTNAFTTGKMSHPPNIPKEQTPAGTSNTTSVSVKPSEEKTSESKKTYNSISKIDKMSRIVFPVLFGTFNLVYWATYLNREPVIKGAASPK
T1 sequence (P47870 25-512 partner limits assumed): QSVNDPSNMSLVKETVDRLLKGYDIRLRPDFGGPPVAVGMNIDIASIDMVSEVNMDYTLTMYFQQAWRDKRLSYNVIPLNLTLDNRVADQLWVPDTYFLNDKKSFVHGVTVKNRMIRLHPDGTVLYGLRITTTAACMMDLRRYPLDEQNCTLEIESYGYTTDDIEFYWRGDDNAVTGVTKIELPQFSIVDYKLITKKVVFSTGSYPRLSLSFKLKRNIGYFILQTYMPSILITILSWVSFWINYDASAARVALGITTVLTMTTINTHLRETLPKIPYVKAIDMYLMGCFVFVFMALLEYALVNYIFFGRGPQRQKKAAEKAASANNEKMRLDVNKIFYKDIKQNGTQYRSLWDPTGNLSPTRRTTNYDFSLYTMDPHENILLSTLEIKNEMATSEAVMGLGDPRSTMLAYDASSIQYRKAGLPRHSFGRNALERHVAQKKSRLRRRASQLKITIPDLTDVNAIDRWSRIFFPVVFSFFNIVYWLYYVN
T1 sequence (Q8N1C3 36-465): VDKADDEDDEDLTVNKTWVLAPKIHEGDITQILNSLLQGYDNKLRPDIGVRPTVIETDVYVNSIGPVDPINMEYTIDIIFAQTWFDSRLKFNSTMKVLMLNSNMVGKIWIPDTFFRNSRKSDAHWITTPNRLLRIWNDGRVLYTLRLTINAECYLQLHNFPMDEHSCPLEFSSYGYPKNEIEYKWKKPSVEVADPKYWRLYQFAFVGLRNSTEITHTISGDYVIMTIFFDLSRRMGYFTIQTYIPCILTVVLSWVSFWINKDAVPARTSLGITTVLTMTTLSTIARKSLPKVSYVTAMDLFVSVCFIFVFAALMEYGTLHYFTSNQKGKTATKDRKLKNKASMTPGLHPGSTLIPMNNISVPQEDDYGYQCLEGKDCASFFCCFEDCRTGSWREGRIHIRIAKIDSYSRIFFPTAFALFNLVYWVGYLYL
Assay: Radioligand binding assay, [3H]RO7239181 competition, HEK293F membranes
Protocol: The affinity of compounds at GABAA γ1 subunit-containing receptors was measured by competition for [^3H]RO7239181 (67.3 Ci/mmol; Roche) binding to membranes from HEK293F cells (ThermoFisher R79007) expressing human (transiently transfected) receptors of composition […], α2β2γ1, α1β2γ1. For better protein expression of the α2 subunit-containing receptors, the 28 amino acid long signal peptide (Met1 to Ala28) of the human GABAA α2 subunit was substituted by the 31 amino acid long signal peptide (Met1 to Ser31) of human GABAA α5 subunit.
Harvested pellets from HEK293F cells expressing the different GABAA receptor subtypes were resuspended in Mannitol Buffer pH 7.2-7.4 (Mannitol 0.29M, Triethylamine 10 mM, Acetic acid 10 mM, EDTA 1 mM plus protease inhibitors (20 tablets Complete, Roche Diagnostics Cat. No. 05 056 489 001 per liter)), washed two times and then resuspended at 1:10 to 1:15 dilution in the same buffer. Cell disruption was performed by stirring the suspension in a Parr vessel #4637 at 435 psi for 15 minutes, and then the suspensions were centrifuged at 1000×g for 15 minutes at 4° C. (Beckman Avanti J-HC; rotor JS-4.2). The supernatant (S1) was transferred in a 21 Schott flask and the pellet (P1) was resuspended with Mannitol Buffer up to 175 ml. The resuspended pellet was transferred into a 250 ml Corning centrifugal beaker and centrifuged at 1500×g for 10 minutes at 4° C. (Beckman Avanti J-HC; rotor JS-4.2). The supernatant (S1) was then transferred in the 21 Schott flask and the pellet was discarded. The supernatants (S1) were centrifuged in 500 ml Beckman polypropylene centrifugal beaker at 15′000×g for 30 minutes at 4° C. (Beckman Avanti J-20 XP; rotor JLA-10.500). The pellet (P2) was resuspended with Mannitol Buffer 1:1 and frozen at −80° C. The supernatant (S2) was centrifuged in 100 ml Beckman polypropylene centrifugal tubes at 48000×g for 50 minutes at 4° C. (Beckman Avanti J-20 XP; rotor JA-18). The supernatant (S3) was discarded and the pellet (P3) was resuspended with 1:1 Mannitol Buffer. The P2 and P3 protein concentration was determined with the BIORAD Standard assay method with bovine serum albumin as standard and measured on the NANO-Drop 1000. The membrane suspension was aliquots (500 μl per tube) and stored at −80° C. until required. Membrane homogenates were resuspended and polytronised (Polytron PT1200E Kinematica AG) in Potassium Phosphate 10 mM, KCl 100 mM binding buffer at pH 7.4 to a final assay concentration determined with a previous experiment.
Radioligand binding assays were carried out in a volume of 200 μL (96-well plates) which contained 100 μL of cell membranes, [^3H]RO7239181 at a concentration of 1.5 nM (α5β2γ1) or 20-30 nM (α1β2γ1, α2β2γ1) and the test compound in the range of [0.3-10000]×10^−9 M. Nonspecific binding was defined by 10×10^−6 (α5β2γ1) and 30×10^−6 M RO7235136 and typically represented less than 5% (α5β2γ1) and less than 20% (α1β2γ1, α2β2γ1) of the total binding. Assays were incubated to equilibrium for 1 hour at 4° C. and then, membranes were filtered onto unifilter (96-well white microplate with bonded GF/C filters preincubated 20-50 minutes in 0.3% Polyethylenimine) with a Filtermate 196 harvester (Packard BioScience) and washed 4 times with cold Potassium Phosphate 10 mM pH 7.4, KCl 100 mM binding buffer. After drying, filter-retained radioactivity was detected by liquid scintillation counting. Ki values were calculated using Excel-Fit (Microsoft) and are the means of two determinations.

Compound | Ki [nM]
Fc1cccc(F)c1C1=NCc2nncn2-c2ccc(C(F)F)c(Cl)c21 [Example 23, 7-chloro-8-(difluoromethyl)-6-(2,6-difluorophenyl)-4H-[1,2,4]triazolo[4,3-a][1,4]benzodiazepine] | 5.8
COc1ccc2c(c1Cl)C(c1c(F)cccc1F)=NCc1nnc(-c3cccnn3)n1-2 [Example 57, 7-chloro-6-(2,6-difluorophenyl)-8-methoxy-1-pyridazin-3-yl-4H-[1,2,4]triazolo[4,3-a][1,4]benzodiazepine] | 4.6
O=c1[nH]nc2n1-c1ccc(Cl)c(Cl)c1C(c1c(F)cccc1F)=NC2 [Example 9, 7,8-dichloro-6-(2,6-difluorophenyl)-2,4-dihydro-[1,2,4]triazolo[4,3-a][1,4]benzodiazepin-1-one] | 0.7
Fc1cccnc1C1=NCc2nnc(-c3ccncn3)n2-c2ccc(Cl)c(Cl)c21 [Example 55, 7,8-dichloro-6-(3-fluoro-2-pyridyl)-1-pyrimidin-4-yl-4H-[1,2,4]triazolo[4,3-a][1,4]benzodiazepine] | 5.5
CO[C@H]1C[C@H](c2nnc3n2-c2ccc(Cl)c(Cl)c2C(c2c(F)cccc2F)=NC3)C1 [Example 91, trans-7,8-dichloro-6-(2,6-difluorophenyl)-1-(3-methoxycyclobutyl)-4H-[1,2,4]triazolo[4,3-a][1,4]benzodiazepine] | 3.1
Fc1cccc(F)c1C1=NCc2nncn2-c2ccc(Cl)c(Cl)c21 [Example 15, 7,8-dichloro-6-(2,6-difluorophenyl)-4H-[1,2,4]triazolo[4,3-a][1,4]benzodiazepine] | 0.9
Cc1nnc2n1-c1ccc(C(F)F)c(Cl)c1C(c1c(F)cccc1F)=NC2 [Example 25, 7-chloro-8-(difluoromethyl)-6-(2,6-difluorophenyl)-1-methyl-4H-[1,2,4]triazolo[4,3-a][1,4]benzodiazepine] | 4.4
Fc1cccc(F)c1C1=NCc2nnc(C3CCOCC3)n2-c2ccc(Cl)c(Cl)c21 [Example 11, 7,8-dichloro-6-(2,6-difluorophenyl)-1-tetrahydropyran-4-yl-4H-[1,2,4]triazolo[4,3-a][1,4]benzodiazepine] | 8.3
Fc1ccccc1C1=NCc2nnc(-c3cccnn3)n2-c2ccc(Cl)c(Cl)c21 [Example 10, 7,8-dichloro-6-(2-fluorophenyl)-1-pyridazin-3-yl-4H-[1,2,4]triazolo[4,3-a][1,4]benzodiazepine] | 1.4
COCCc1nnc2n1-c1ccc(Cl)c(Cl)c1C(c1c(F)cccc1F)=NC2 [Example 19, 7,8-dichloro-6-(2,6-difluorophenyl)-1-(2-methoxyethyl)-4H-[1,2,4]triazolo[4,3-a][1,4]benzodiazepine] | 2.5
Cc1nnc2n1-c1ccc(I)c(Cl)c1C(c1c(F)cccc1F)=NC2 [Example 41, 7-chloro-6-(2,6-difluorophenyl)-8-iodo-1-methyl-4H-[1,2,4]triazolo[4,3-a][1,4]benzodiazepine] | 0.8
Cc1ccc2c(c1Cl)C(c1c(F)cccc1F)=NCc1nnc(-c3ccncn3)n1-2 [Example 49, 7-chloro-6-(2,6-difluorophenyl)-8-methyl-1-pyrimidin-4-yl-4H-[1,2,4]triazolo[4,3-a][1,4]benzodiazepine] | 1.7
O=c1[nH]nc2n1-c1ccc(Cl)c(Cl)c1C(c1ncccc1F)=NC2 [Example 59, 7,8-dichloro-6-(3-fluoro-2-pyridyl)-2,4-dihydro-[1,2,4]triazolo[4,3-a][1,4]benzodiazepin-1-one] | 5.9
Fc1cccnc1C1=NCc2nncn2-c2ccc(Cl)c(Cl)c21 [Example 60, 7,8-dichloro-6-(3-fluoro-2-pyridyl)-4H-[1,2,4]triazolo[4,3-a][1,4]benzodiazepine] | 7.5
Cn1cc(-c2nnc3n2-c2ccc(Cl)c(Cl)c2C(c2c(F)cccc2F)=NC3)cn1 [Example 28, 7,8-dichloro-6-(2,6-difluorophenyl)-1-(1-methylpyrazol-4-yl)-4H-[1,2,4]triazolo[4,3-a][1,4]benzodiazepine] | 1.4
Fc1ccccc1C1=NCc2nnc(-c3cccnn3)n2-c2ccc(C(F)(F)F)c(Cl)c21 [Example 27, 7-chloro-6-(2-fluorophenyl)-1-pyridazin-3-yl-8-(trifluoromethyl)-4H-[1,2,4]triazolo[4,3-a][1,4]benzodiazepine] | 6.3
COc1ccc2c(c1Cl)C(c1c(F)cccc1F)=NCc1nnc(-c3cccnc3)n1-2 [Example 62, 7-chloro-6-(2,6-difluorophenyl)-8-methoxy-1-(3-pyridyl)-4H-[1,2,4]triazolo[4,3-a][1,4]benzodiazepine] | 4
Fc1cccnc1C1=NCc2nnc(-c3ccncn3)n2-c2ccc(C(F)(F)F)c(Cl)c21 [Example 69, 7-chloro-6-(3-fluoro-2-pyridyl)-1-pyrimidin-4-yl-8-(trifluoromethyl)-4H-[1,2,4]triazolo[4,3-a][1,4]benzodiazepine] | 7.1
Fc1cccc(F)c1C1=NCc2nnc(-c3cccnn3)n2-c2ccc(Br)c(Br)c21 [Example 42, 7,8-dibromo-6-(2,6-difluorophenyl)-1-pyridazin-3-yl-4H-[1,2,4]triazolo[4,3-a][1,4]benzodiazepine] | 0.9
Fc1cccc(F)c1C1=NCc2nnc(-c3cccnn3)n2-c2ccc(Cl)c(Cl)c21 [Example 14, 7,8-dichloro-6-(2,6-difluorophenyl)-1-pyridazin-3-yl-4H-[1,2,4]triazolo[4,3-a][1,4]benzodiazepine] | 0.8

Source: US20230141603A1, “BENZODIAZEPINE DERIVATIVES AS GABA A GAMMA1 PAM” (Hoffmann-La Roche Inc., priority 2021, published 2023)
